From ChEMBL document CHEMBL3044767, “GdCl3 promoted synthesis of novel pyrimidine fused indazole derivatives and their anticancer activity” (Med Chem Res, 2012) come the findings set out here.

In assay [1] the test system is U-937. As to the kind of experiment: Ratio of etoposide IC50 to compound IC50 for Homo sapiens (human) U937 cells after 48 hr by MTT assay. The format is functional.
Assay [2] has as its system U-937. The assay can be described thus: Cytotoxicity against Homo sapiens (human) U937 cells after 48 hr by MTT assay. The format is functional, cell-based. Particulars: U-937, 48 h.
The next assay deals with THP-1. The assay can be described thus: Cytotoxicity against Homo sapiens (human) THP1 cells after 48 hr by MTT assay. The format is functional, cell-based. Particulars: THP-1, 48 h.

The structures appear in SMILES notation. Converted amounts (≈) assume the structure as drawn.

With `N#Cc1c(-c2ccccc2)cc(C(F)(F)F)c2c3n(nc12)C(c1ccccc1)C[C@H](c1ccccc1)N3` (some centres not stated), in the assay with U-937 [1], the “Ratio IC50” value was determined as 1.4. In the assay with U-937 [2], this molecule had a concentration for half-maximal inhibition (IC50) of 7.52 µg/mL (≈ 15.2 µM).
`N#Cc1c(C(F)(F)F)cc(-c2ccccc2)c2c3n(nc12)[C@H]1OCCC[C@H]1[C@H](c1ccccc1)N3`: the IC50 was 79.9 µg/mL (≈ 168 µM) with THP-1 and 9.02 µg/mL (≈ 19 µM) in the assay on U-937 [2]. For the same molecule, the “Ratio IC50” value in the assay on U-937 [1] was 1.17.
`C=CC1(C)C[C@H](c2ccccc2)Nc2c3c(-c4ccccc4)cc(C(F)(F)F)c(C#N)c3nn21` (some centres not stated): the values for the IC50 with THP-1 and in the assay on U-937 [2] were 53.3 µg/mL (≈ 116 µM) and 8.7 µg/mL (≈ 19 µM), respectively. Further, the “Ratio IC50” value in the assay with U-937 [1] turned out to be 1.21.
Consider `N#Cc1c(-c2ccccc2)cc(C(F)(F)F)c2c3n(nc12)[C@H]1C=CCC[C@H]1CN3`, for which the “Ratio IC50” value with U-937 [1] worked out at 4. Moreover, the 50% inhibitory concentration (IC50) in the assay with U-937 [2] is 2.64 µg/mL (≈ 6.69 µM).
Take `N#Cc1c(C(F)(F)F)cc(-c2ccccc2)c2c3n(nc12)[C@H]1OCCC[C@H]1CN3`: the results for the concentration for half-maximal inhibition (IC50) in the assay with THP-1 and with U-937 [2] were 33.5 µg/mL (≈ 84.1 µM) and 11.2 µg/mL (≈ 28.2 µM), respectively.
On to `N#Cc1c(C(F)(F)F)cc(-c2ccccc2)c2c3n(nc12)C(c1ccccc1)CCN3` (configuration not stated), for which the “Ratio IC50” value with U-937 [1] turned out to be 1.33. Half-maximal inhibition in the assay with U-937 [2] (IC50) was put at 7.92 µg/mL (≈ 18.9 µM).
`N#Cc1c(-c2ccccc2)cc(C(F)(F)F)c2c3n(nc12)[C@H]1OCCC[C@H]1CN3`: the concentration for half-maximal inhibition (IC50) in the assay on THP-1 was 65.4 µg/mL (≈ 164 µM); in the assay with U-937 [2], 6.49 µg/mL (≈ 16.3 µM). In addition, the “Ratio IC50” value in the assay with U-937 [1] is given as 1.63.
`C=CC1(C)CCNc2c3c(-c4ccccc4)cc(C(F)(F)F)c(C#N)c3nn21` (configuration not stated): the “Ratio IC50” value with U-937 [1] was 1.09. Besides, the IC50 in the assay on U-937 [2] was determined as 9.73 µg/mL (≈ 25.4 µM).
Regarding `N#Cc1c(-c2ccccc2)cc(C(F)(F)F)c2c3n(nc12)C(c1ccccc1)CCN3` (configuration not stated), in the assay on U-937 [1], the “Ratio IC50” value is 1.13. The same molecule came in with a 50% inhibitory concentration (IC50) in the assay with U-937 [2] of 9.36 µg/mL (≈ 22.4 µM).
For the molecule `C=CC1(C)CCNc2c3c(C(F)(F)F)cc(-c4ccccc4)c(C#N)c3nn21` (configuration not stated), the half-inhibitory concentration (IC50) in the assay on U-937 [2] was found to be 53.5 µg/mL (≈ 140 µM).
